Measurements taken from the supplement of paper PMC11451515.

Columns and labels:
Assay in all cases: AUC of viability dose-response curve (% viability x log10 dose units); higher = less sensitive
Conditions in all cases: 48 h
NOMO1 = tested on: NOMO1
How it was run: (§1)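 Area under the curve was integrated by trapezoidal rule from a log-logistic fit of normalised viability, with curves exceeding full viability scaled and quality-control failures removed. The fit had four parameters over log10 doses. Viability came from CellTiter-Glo One luminescence, normalised per plate to DMSO and cell-free wells, after leukemia cells adapted to each medium (500 or 1000 cells/well, 1536-well plates) were exposed to library compounds in DMSO for 48 h at 37°C. The 11 threefold doses ran from 47 μM to 0.79 nM.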

SEM cells = tested on: SEM cells
How it was run: as §1

P12-Ichikawa = tested on: P12-Ichikawa
How it was run: as §1

[1] = RPMI 5 mM glucose + 10% dialyzed FBS

Row | SMILES | AUC of viability dose-response curve (NOMO1; HPLM + 10% dialyzed FBS) | AUC of viability dose-response curve (NOMO1; RPMI 5 mM glucose + 10% FBS) | AUC of viability dose-response curve (NOMO1; [1]) | AUC of viability dose-response curve (SEM cells; HPLM + 10% dialyzed FBS) | AUC of viability dose-response curve (SEM cells; RPMI 5 mM glucose + 10% FBS) | AUC of viability dose-response curve (SEM cells; [1]) | AUC of viability dose-response curve (P12-Ichikawa; HPLM + 10% dialyzed FBS) | AUC of viability dose-response curve (P12-Ichikawa; RPMI 5 mM glucose + 10% FBS) | AUC of viability dose-response curve (P12-Ichikawa; [1])
1 | O=C1N\C=N/C2=C1C=N[NH]2 | 425 | 421 | 382 | 359 | 350 | 384 | 393 | 397 | 398
2 | Cc1c(C(=O)c2cccc3ccccc23)c2cccc3c2n1[C@H](CN1CCOCC1)CO3 | 432 | 404 | 394 | 372 | 375 | 403 | 417 | 366 | 397
3 | CN1CCC(CC1)=C2C3=C(C=CC=C3)\C=C/C4=C2C=CC=C4 | 470 | 467 | 468 | 469 | 467 | 468 | 473 | 467 | 477
4 | CCc1cc(-c2n[nH]c(C)c2-c2ccc3c(c2)OCCO3)c(O)cc1O | 450 | 447 | 448 | 422 | 414 | 418 | 455 | 435 | 444
5 | C1CN\2C[C@@H](\N=C2S1)C3=CC=CC=C3 | 465 | 442 | 429 | 459 | 396 | 476 | 467 | 462 | 455
6 | COc1cc(Cl)cn2c(-c3cccc(NC4CNC4)n3)cnc12 | 472 | 468 | 454 | 453 | 442 | 440 | 459 | 458 | 464
7 | Nc1ccc([S+](=O)([O-])Nc2ncccn2)cc1 | 467 | 444 | 452 | 460 | 462 | 437 | 464 | 452 | 471
8 | Cn1cnc([N+](=O)[O-])c1Sc1ncnc2nc[nH]c12 | 353 | 342 | 353 | 398 | 337 | 299 | 381 | 365 | 367
9 | C[C@H]1Oc2cc(cnc2N)-c2c(nn(C)c2C#N)CN(C)C(=O)c2ccc(F)cc21 | 459 | 467 | 463 | 446 | 457 | 473 | 462 | 463 | 461
10 | Nc1ccn([C@H]2CS[C@@H](CO)O2)c(=O)n1 | 459 | 464 | 472 | 454 | 445 | 470 | 440 | 471 | 464
11 | CCOC(=O)O[C@]1(C(=O)OCCl)CC[C@H]2[C@@H]3CCC4=CC(=O)C=C[C@]4(C)[C@H]3[C@@H](O)C[C@@]21C | 459 | 427 | 431 | 460 | 429 | 430 | 467 | 461 | 450
12 | Cc1cnc(Nc2ccc(N3CCN(C)CC3)cc2)nc1Nc1cccc([S+](=O)([O-])NC(C)(C)C)c1 | 375 | 411 | 406 | 311 | 303 | 324 | 400 | 390 | 400
13 | COC(=O)[C@H](c1ccccc1Cl)N1CCc2sccc2C1 | 357 | 328 | 343 | 449 | 440 | 432 | 414 | 416 | 427
14 | Oc1ccc2ccccc2c1SSc1c(O)ccc2ccccc12 | 470 | 469 | 469 | 453 | 450 | 417 | 474 | 464 | 463
15 | CC(C)n1cnc2c(NCCc3ccc(O)cc3)nc(-c3csc4ccccc34)nc21 | 393 | 434 | 433 | 424 | 396 | 388 | 371 | 428 | 422
16 | CO[C@@H]1[C@@H](O)[C@H](O)[C@@H](n2c3c(Cl)cccc3c3c4c(c5c6cccc(Cl)c6[nH]c5c32)C(=O)NC4=O)O[C@H]1CO | 340 | 323 | 325 | 292 | 254 | 283 | 266 | 259 | 251
17 | CC(C)(Sc1ccc(CCN(CCCCC2CCCCC2)C(=O)NC2CCCCC2)cc1)C(=O)O | 467 | 467 | 472 | 460 | 463 | 472 | 460 | 462 | 460
18 | Oc1c(Cl)cc(Cl)c2cccnc12 | 446 | 438 | 462 | 435 | 439 | 433 | 465 | 447 | 449
19 | COc1cc2ncn(-c3cc(OCc4ccccc4C(F)(F)F)c(C(N)=O)s3)c2cc1OC | 349 | 375 | 375 | 358 | 354 | 372 | 333 | 352 | 364
20 | N=C(N)NC(=N)N1CCOCC1 | 465 | 461 | 447 | 472 | 467 | 460 | 473 | 454 | 463
21 | CCOCC(O)COc1ccc(NC(=O)CC[S+](C)C)cc1 (configuration not stated) | 460 | 411 | 413 | 451 | 424 | 433 | 442 | 452 | 408
22 | C[C@H](NCc1ccc(OCc2cccc(F)c2)cc1)C(N)=O | 445 | 461 | 454 | 323 | 325 | 290 | 450 | 443 | 443
23 | CN(C)[C@@H](CCOc1cccc2ccccc12)c1ccccc1 | 433 | 461 | 456 | 400 | 444 | 469 | 455 | 433 | 467
24 | CN(C(Cc1ccc(O[S+](=O)([O-])c2cccc3cnccc23)cc1)C(=O)N1CCN(c2ccccc2)CC1)[S+](=O)([O-])c1cccc2cnccc12 (configuration not stated) | 442 | 425 | 436 | 436 | 424 | 428 | 452 | 434 | 450
25 | O=C(NCc1ccccc1)c1csc(Nc2ccncn2)n1 | 345 | 331 | 335 | 310 | 287 | 310 | 386 | 358 | 367
26 | CCCCCCCCCCCC/1=C(O)/C(=O)/C=C(O)\C1=O | 326 | 301 | 326 | 462 | 454 | 457 | 357 | 357 | 375
27 | CC1=C(/C=C/C(C)=C/C=C/C(C)=C/C(=O)O)C(C)(C)CCC1 | 434 | 443 | 412 | 475 | 465 | 450 | 468 | 464 | 467
28 | NC\1=N\C(=O)N(\C=C1F)[C@H]2C[C@H](O)[C@@H](CO)O2 | 280 | 360 | 239 | 270 | 359 | 201 | 285 | 279 | 264
